From US20250044299A1, “PROTEIN STABILITY ASSAY” (Medicines Discovery Catapult Limited, priority 2021, published 2025)
Values belong to the compound of their own block, whether it stands above or below them.

Columns and labels:
Type in all cases: binding
AKT1 = target: T1, AKT1 (Homo sapiens, UniProt P31749); experiment: Protein stability assay, AlphaLISA endpoint, HEK293T cell lysate, EA (Example 8)
T1 construct: endogenous in cells; host or cells: HEK293T
Method: (§1) Lysate from HEK293T cells grown in continuous culture at 5% CO2/37° C. in full growth media (RPMI (Gibco 11835-063), 10% FCS (Gibco F7524) 1% Glutamax (Gibco 35050-061)) was produced by growing cells in flasks to 85% confluence, removing from the surface using 3 ml Tryple Select (Gibco 12563011), centrifuging (1000 rpm for 4 minutes) to pellet, washing cell pellet two times in DPBS (Gibco 14190-094), resuspending in 1 ml of DPBS (Gibco 14190-094) containing 1× HALT Protease and Phosphatase inhibitor cocktail (Thermo Scientific 78440) per flask and lysing by three cycles of a liquid nitrogen freeze followed by thawing at room temperature. […]
To run the protein stability assay, an aliquot of HEK293T cell lysate at 4 μg/μl was thawed at room temperature and 2 μl added to each well of a 384-well White ProxiPlate (Perkin Elmer 6008280) containing […] MK-2206 (LKT Laboratories M400220) or an equivalent volume of DMSO dosed using the Labcyte ECHO. […] While incubating, fresh 100% EA (Ethanol (10437341) and Acetic Acid (10365020), all from Fisher Scientific in a ratio of 100:0.1) denaturant was made in a glass bottle ready for use. An aliquot of 100% EA was diluted to 50% in DPBS (Gibco 14190-094) ready to produce titration curves of denaturant. […]

p38α MAPK = p38α MAPK (Homo sapiens, UniProt Q16539); experiment: Protein stability assay screening study, AlphaLISA endpoint, HEK293T cell lysate, compound concentration response at fixed AEA or EA (Example 2); set-up: endogenous in cells; host or cells: HEK293T; settings: fixed 22% AEA or 20% EA, 10-point concentration response
Method: The fixed denaturant concentration to be added was made up as a 5/4 stock so that when 8 μl of denaturant was added to 2 μl lysate the final volume was 10 μl and the denaturant concentrations were as listed above. After compound/lysate incubation was complete 8 μl of the prepared AEA or EA stock was added to each well of separate plates, the contents of the plates were settled by a short pulse spin, sealed, and then incubated with shaking at 800 rpm for 120 minutes on a heated plate shaker set to 21° C. For signal detection an antibody detection mix was made up no more than 20 minutes prior to use. […] 10 μl of antibody bead mix was added to each test well, the contents of the plates were settled by a short pulse spin, sealed, shaken gently for 1-2 minutes, wrapped in foil, and then incubated for 16-18 hours in the dark. After incubation the plates were read on a fluorescence detecting plate reader (Excitation 680 nm, Emission 615 nm) to determine well signals. Concentration response curves were produced from normalised data using the Genedata Screener data analysis package, and EC50 values generated to allow data comparison between the two denaturant types.

CDK9 = target: T2, CDK9 (Homo sapiens, UniProt P50750); experiment: Protein stability assay with Western blot endpoint, cell lysate, AEA titration (Example 5); settings: 100 μM compound as printed, vs DMSO
T2 construct: Lysate from U-2 OS cells grown in continuous culture; endogenous in cells; b320 says HEK293T
Method: as §1, with “Lysate from U-2 OS cells grown” for “Lysate from HEK293T cells grown”, “cells in T175 flasks to” for “cells in flasks to”, “14190-094), resuspending 1 ml” for “14190-094), resuspending in 1 ml”
Lysate/compound mixes were incubated for 30-60 minutes at room temperature. While incubating, fresh 100% AEA (Acetone (11443733) Ethanol (10437341) and Acetic Acid (10365020), all from Fisher Scientific in a ratio of 50:50:0.1) denaturant was made in a glass bottle ready for use. An aliquot of 100% AEA was diluted to 50% in DPBS (Gibco 14190-094) ready to produce either titration curves or a fixed concentration of denaturant. […]

T1 sequence (P31749 whole entry): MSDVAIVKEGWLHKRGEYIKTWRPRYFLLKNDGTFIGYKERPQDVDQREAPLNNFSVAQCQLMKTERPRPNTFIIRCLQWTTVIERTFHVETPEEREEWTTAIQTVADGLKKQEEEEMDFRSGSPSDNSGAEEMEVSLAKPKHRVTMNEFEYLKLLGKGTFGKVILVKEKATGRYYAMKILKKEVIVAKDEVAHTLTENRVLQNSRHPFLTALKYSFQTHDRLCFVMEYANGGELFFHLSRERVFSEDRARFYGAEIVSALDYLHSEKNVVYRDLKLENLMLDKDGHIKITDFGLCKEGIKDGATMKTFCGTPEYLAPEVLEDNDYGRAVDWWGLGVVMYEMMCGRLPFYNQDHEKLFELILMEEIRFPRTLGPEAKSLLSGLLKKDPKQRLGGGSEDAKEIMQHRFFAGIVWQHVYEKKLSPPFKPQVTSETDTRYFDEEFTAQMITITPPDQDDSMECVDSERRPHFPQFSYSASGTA
Sequence of p38α MAPK (Q16539 whole entry): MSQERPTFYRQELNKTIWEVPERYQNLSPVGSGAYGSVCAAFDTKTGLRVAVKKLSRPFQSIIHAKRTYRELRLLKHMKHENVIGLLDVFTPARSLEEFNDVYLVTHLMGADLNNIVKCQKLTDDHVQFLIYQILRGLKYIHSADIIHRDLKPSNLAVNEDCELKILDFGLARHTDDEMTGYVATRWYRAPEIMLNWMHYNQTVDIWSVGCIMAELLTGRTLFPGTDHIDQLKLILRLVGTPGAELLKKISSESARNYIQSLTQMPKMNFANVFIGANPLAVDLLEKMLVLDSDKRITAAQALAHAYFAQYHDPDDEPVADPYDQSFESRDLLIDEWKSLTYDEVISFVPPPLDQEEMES
T2 sequence (P50750 whole entry): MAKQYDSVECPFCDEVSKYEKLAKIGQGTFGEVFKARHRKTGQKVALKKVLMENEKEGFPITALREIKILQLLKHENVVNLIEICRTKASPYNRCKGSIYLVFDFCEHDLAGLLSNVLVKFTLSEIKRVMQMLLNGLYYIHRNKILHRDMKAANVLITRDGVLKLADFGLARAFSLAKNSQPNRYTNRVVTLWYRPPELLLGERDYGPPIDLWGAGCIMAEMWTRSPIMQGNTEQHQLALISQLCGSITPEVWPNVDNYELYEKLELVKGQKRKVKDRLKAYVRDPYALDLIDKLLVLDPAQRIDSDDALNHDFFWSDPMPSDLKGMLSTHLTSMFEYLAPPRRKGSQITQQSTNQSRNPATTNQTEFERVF
T2 sequence (O60563 whole entry partner): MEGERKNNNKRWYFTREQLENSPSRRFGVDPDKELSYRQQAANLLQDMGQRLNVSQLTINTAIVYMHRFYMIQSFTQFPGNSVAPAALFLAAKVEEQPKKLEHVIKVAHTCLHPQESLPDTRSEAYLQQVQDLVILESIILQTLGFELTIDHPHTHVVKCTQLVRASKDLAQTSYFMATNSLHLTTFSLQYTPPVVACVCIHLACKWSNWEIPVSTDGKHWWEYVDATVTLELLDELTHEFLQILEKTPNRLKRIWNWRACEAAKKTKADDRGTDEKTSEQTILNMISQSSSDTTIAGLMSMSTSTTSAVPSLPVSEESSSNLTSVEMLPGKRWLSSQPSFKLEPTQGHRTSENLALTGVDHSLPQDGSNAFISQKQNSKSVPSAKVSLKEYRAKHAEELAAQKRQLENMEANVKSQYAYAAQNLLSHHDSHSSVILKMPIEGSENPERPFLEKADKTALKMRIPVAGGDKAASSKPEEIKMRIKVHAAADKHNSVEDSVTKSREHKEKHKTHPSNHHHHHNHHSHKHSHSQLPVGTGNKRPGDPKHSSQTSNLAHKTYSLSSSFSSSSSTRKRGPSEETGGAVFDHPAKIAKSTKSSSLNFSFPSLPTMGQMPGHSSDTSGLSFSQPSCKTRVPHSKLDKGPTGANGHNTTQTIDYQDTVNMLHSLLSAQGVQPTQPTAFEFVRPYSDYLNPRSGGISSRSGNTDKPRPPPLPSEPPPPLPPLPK

stabilisation of AKT1 protein (shift in protein denaturation curves) (AKT1; 10 μM compound, EA titration, vs DMSO only): stabilisation of AKT1 protein
Compound: NC1(c2ccc(-c3nc4ccn5c(=O)[nH]nc5c4cc3-c3ccccc3)cc2)CCC1 [MK-2206]
AKT1 protein stabilisation, concentration response curve (AKT1; fixed 18% EA): AKT1 protein stabilisation by MK-2206 in a dose dependent manner

Compound: Cc1c(F)cc(C(=O)NC2CC2)cc1-c1c(F)cn2c(C(C)(C)C)nnc2c1F [AL 8697]
stabilisation of protein, compound concentration response curves (p38α MAPK): stabilisation of protein in a dose dependent manner

stabilisation of CDK9 protein against chemical denaturation (CDK9): increased stabilisation of CDK9 protein
Compound: Cc1ncc(-c2ccnc(Nc3ccc(S(C)(=O)=O)cc3)n2)n1C(C)C [AZD5438]

Compound: O=c1ncn2nc(Sc3ccc(F)cc3F)ccc2c1-c1c(Cl)cccc1Cl [VX 745]
stabilisation of protein, compound concentration response curves (p38α MAPK): stabilisation of protein in a dose dependent manner
